# System: A. viscosus in biofilms
# Assay: Phototoxicity (bacterial killing, colony counts) of methylene blue on A. viscosus biofilms with red light, with or without a stress wave
# Format: cell-based
# Method: The biofilms were grown on enamel surfaces as described in Example 1. Biofilms were incubated with methylene blue for 1 or 5 minutes and exposed to stress waves (one pulse), after which they were exposed to 666 nm red light with a fluence of 15 J/cm^2 at an irradiance of 50 mW/cm^2. In control samples, biofilms were treated only with methylene blue, or were treated with methylene blue and exposed to red light, but without stress waves. An argon ion laser with an emission of 514.5. nm was used to pump a dye laser. The laser light was coupled into a 1.0 mm quartz fiber and appropriate spot sizes were created with an objective lens.
# After illumination, adherent bacteria from the samples as treated above were scraped from the enamel surfaces with a sterile blade and dispersed in trypticase soy broth. Serial dilutions were prepared, and 100 μl aliquots were spread over the surfaces of blood agar plates. Survival fractions from each biofilm were calculated by counting the colonies on the plates and dividing by the number of colonies from dark controls incubated with the drug and kept at room temperature for periods equal to irradiation time. Other controls were: 1) biofilms untreated with methylene blue, light, or stress waves; 2) biofilms exposed only to a stress wave; 3) biofilms exposed to light without methylene blue; and 4) biofilms exposed to light after incubation with methylene blue.
smiles,measurement,setting,value
CN(C)c1ccc2nc3ccc(=[N+](C)C)cc-3sc2c1 [methylene blue],bacteria associated with biofilms killed,"five-minute incubation with 50 μg/ml methylene blue, red light, no stress wave",57%
same,bacteria associated with biofilms killed,"five-minute incubation with 50 μg/ml methylene blue, stress wave (one pulse) and 666 nm red light 15 J/cm^2",99%
same,bacteria associated with biofilms killed,"one-minute incubation with 50 μg/ml methylene blue, red light, no stress wave",34%
same,bacteria associated with biofilms killed,"one-minute incubation with 50 μg/ml methylene blue, stress wave (one pulse) and red light",96.5%
